Measured values published in US9271978B2 (Zenith Epigenetics Corp., priority 2012, dated 2016).

Experiments:
Design in all cases: key: Active: Compounds with an IC50 value less than 30 μM were deemed to be active.; Not Active: Compounds with an IC50 value less than 30 μM were deemed to be active
[1] = target: T1, second bromodomain of Brd2 (BRD2(2)) (Homo sapiens, UniProt P25440); experiment: Inhibition of tetra-acetylated histone H4 binding to Brd2 bromodomain 2 (TR-FRET); settings: tetra-acetylated histone H4 peptide, active = IC50 <30 μM
T1 construct: made in house; host or cells: E. coli BL21 (DE3)
Method: Proteins were cloned and overexpressed with a N-terminal 6×His tag, then purified by nickel affinity followed by size exclusion chromatography. Briefly, E. coli BL21 (DE3) cells were transformed with a recombinant expression vector encoding N-terminally Nickel affinity tagged bromodomains from Brd2, Brd3, Brd4. Cell cultures were incubated at 37° C. with shaking to the appropriate density and induced overnight with IPTG. The supernatant of lysed cells was loaded onto Ni-IDA column for purification. Eluted protein is pooled, concentrated and further purified by size exclusion chromatography. Fractions representing monomeric protein were pooled, concentrated, aliquoted, and frozen at −80° C. for use in subsequent experiments.
Binding of tetra-acetylated histone H4 and BET bromodomains was confirmed by a Time Resolved Fluorescence Resonance Energy Transfer (TR-FRET) method. N-terminally His-tagged bromodomains (200 nM) and biotinylated tetra-acetylated histone H4 peptide (25-50 nM, Millipore) were incubated in the presence of Europium Cryptate-labeled streptavidin (Cisbio Cat. #610SAKLB) and XL665-labeled monoclonal anti-His antibody (Cisbio Cat. #61HISXLB) in a white 96 well microtiter plate (Greiner). For inhibition assays, serially diluted test compound was added to these reactions in a 0.2% final concentration of DMSO. Final buffer concentrations were 30 mM HEPES pH 7.4, 30 mM NaCl, 0.3 mM CHAPS, 20 mM phosphate pH 7.0, 320 mM KF, 0.08% BSA). After a 2-h incubation at room temperature, the fluorescence by FRET was measured at 665 and 620 nm by a SynergyH4 plate reader (Biotek). Illustrative results with the first bromodomain of Brd4 and the second bromodomain of Brd2 are shown below. The binding inhibitory activity was shown by a decrease in 665 nm fluorescence relative to 620 nm. IC50 values were determined from a dose response curve.

[2] = target: T2, Brd4 bromodomain 1 (BRD4(1)) (Homo sapiens, UniProt O60885); experiment: Inhibition of tetra-acetylated histone H4 binding to Brd4 bromodomain 1 (TR-FRET); settings: tetra-acetylated histone H4 peptide, active = IC50 <30 μM
T2 construct: Illustrative results with the first bromodomain of Brd4; made in house; host or cells: E. coli BL21 (DE3)
Method in brief: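 IC50 values come from dose-response curves of the 665 nm to 620 nm TR-FRET signal decrease, measured after 2 h at room temperature. Reactions contained 200 nM E. coli-expressed His-tagged bromodomain, 25-50 nM biotinylated tetra-acetylated H4 peptide, Eu-streptavidin plus XL665 anti-His antibody, with 30 mM HEPES pH 7.4, 320 mM KF and 0.2% DMSO.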

c-myc = experiment: Inhibition of c-myc expression in MV4-11 cells (mRNA, real-time PCR); assay type: cell-based; settings: Human AML MV4-11 cells, 3 h incubation
Method: MV4-11 cells (2.5×10^4 cells) were plated in 96 well U-bottom plates with test compound or DMSO (0.1%), and incubated for 3 h at 37° C. Cells were then harvested by centrifugation, lysed, and mRNA was isolated using the mRNA catcher plus kit (Invitrogen). Reverse transcription of the mRNA and duplex amplification of the c-myc and cyclophilin cDNAs was performed using the RNA Ultrasense kit (Invitrogen) and a ViiA7 real-time PCR machine (Applied Biosystems). IC50 values were determined from a dose response curve.

hIL-6 mRNA = experiment: Inhibition of hIL-6 mRNA transcription in U937 cells; assay type: cell-based, human; settings: LPS stimulation, active = IC50 <30 μM
Method: In this example, hIL-6 mRNA in tissue culture cells was quantitated to measure the transcriptional inhibition of hIL-6 when treated with a compound of the present disclosure.
A human leukemic monocyte lymphoma cell line (U937) was plated (3.2×10^4 cells per well) in a 96-well plate in […] RPMI-1640 containing 10% FBS and penicillin/streptomycin, and differentiated into macrophages for 3 days in 60 ng/mL PMA ([…]) at 37° C. in 5% CO2 prior to the addition of the compound of interest. The cells were pretreated for 1 h with the test compound prior to stimulation with 1 ug/mL lipopolysaccharide from Escherichia coli. The cells were incubated at 37° C. for 3 h before the cells were harvested. At time of harvest, the spent media was removed from the cells and the cells were rinsed in […] PBS. Cell lysis solution (70 μL) was added the cells in each well and incubated for 5-10 min at room temperature, to allow for complete cell lysis and detachment. mRNA was then prepared using the “mRNA Catcher PLUS plate” (Invitrogen), according to the protocol supplied. After the last wash, as much wash buffer as possible was aspirated without allowing the wells to dry. Elution buffer (E3, 70 μL) was then added to each well. mRNA was then eluted by incubating the mRNA Catcher PLUS plate with Elution Buffer for 5 min at 68° C. and then immediately placing the plate on ice.
The eluted mRNA isolated was then used in a one-step quantitative real-time PCR reaction, using components of the Ultra Sense Kit together with Applied Biosystems primer-probe mixes. Real-time PCR data was analyzed, normalizing the Ct values for hIL-6 to an internal control, prior to determining the fold induction of each unknown sample, relative to the control.

[3] = system: human AML MV-4-11 (CRL-9591) cells; experiment: Inhibition of cell proliferation in MV4-11 cells; assay type: cell-based; settings: human AML MV-4-11 cells, 72 h; active = IC50 <30 μM
Method: MV4-11 cells: 96-well plates were seeded with 5×10^4 cells per well of exponentially growing human AML MV-4-11 (CRL-9591) cells and immediately treated with two-fold dilutions of test compounds, ranging from 30 μM to 0.2 μM. Triplicate wells were used for each concentration, as well as a media only and three DMSO control wells. The cells and compounds were incubated at 37° C., 5% CO2 for 72 h before adding 20 μL of the CellTiter Aqueous One Solution (Promega) to each well and incubating at 37° C., 5% CO2 for an additional 3-4 h. The absorbance was taken at 490 nm in a spectrophotometer and the percentage of proliferation relative to DMSO-treated cells was calculated after correction from the blank well. IC50 were calculated using the GraphPad Prism software.

T1 sequence (P25440 344-453 limits assumed): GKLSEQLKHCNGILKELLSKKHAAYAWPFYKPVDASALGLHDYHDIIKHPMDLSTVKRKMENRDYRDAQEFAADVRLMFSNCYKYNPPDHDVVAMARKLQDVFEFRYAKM

SMILES | FRET activity (IC50 <30 μM) BRD2(2) [1] | FRET activity (IC50 <30 μM) BRD4(1) [2] | c-myc activity (IC50 <30 μM) (c-myc) | IL-6 activity (IC50 <30 μM) (hIL-6 mRNA) | Cell Proliferation activity (IC50 <30 μM) [3]
Cc1noc(C)c1-c1cc(C)c(=O)n(Cc2ccncc2)n1 [Example 87, 6-(3,5-Dimethylisoxazol-4-yl)-4-methyl-2-(pyridin-4-ylmethyl)pyridazin-3(2H)-one] | Active | Active |  | Not Active | Not Active
Cc1noc(C)c1-c1ccc(=O)n(Cc2cccc3cccnc23)n1 [Example 102, 6-(3,5-Dimethylisoxazol-4-yl)-2-(quinolin-8-ylmethyl)pyridazin-3(2H)-one] | Active | Active |  | Active | 
Cc1noc(C)c1-c1ccc(=O)n(Cc2ccsc2)c1 [Example 79, 5-(3,5-Dimethylisoxazol-4-yl)-1-(thiophen-3-ylmethyl)pyridin-2(1H)-one] | Active | Active | Active | Active | 
CNC(=O)c1ccc(Cn2nc(-c3c(C)noc3C)ccc2=O)cc1 [Example 89, 4-((3-(3,5-Dimethylisoxazol-4-yl)-6-oxopyridazin-1(6H)-yl)methyl)-N-methylbenzamide] | Active | Active |  | Not Active | 
Cc1noc(C)c1-c1ccc(=O)n(Cc2ccccc2C#N)c1 [Example 135, 2-((5-(3,5-Dimethylisoxazol-4-yl)-2-oxopyridin-1(2H)-yl)methyl)benzonitrile] | Active | Active | Active |  | 
Cc1noc(C)c1-c1ccc(=O)n(C(C)c2ccccc2Cl)c1 (centres unmarked) [Example 103, 1-(1-(2-Chlorophenyl)ethyl)-5-(3,5-dimethylisoxazol-4-yl)pyridin-2(1H)-one] | Active | Active |  | Not Active | 
Cc1noc(C)c1-c1ccc(=O)n(Cc2ccc(F)cc2F)c1 [Example 138, 1-(2,4-Difluorobenzyl)-5-(3,5-dimethylisoxazol-4-yl)pyridin-2(1H)-one] | Active | Active |  | Active | 
Cc1noc(C)c1-c1ccc(=O)n(Cc2ccccc2OC(F)(F)F)n1 [Example 39, 6-(3,5-Dimethylisoxazol-4-yl)-2-(2-(trifluoromethoxy)benzyl)pyridazin-3(2H)-one] | Active | Active |  | Active | 
Cc1noc(C)c1-c1ccc(=O)n(Cc2ccccc2Cl)n1 [Example 26, 2-(2-Chlorobenzyl)-6-(3,5-dimethylisoxazol-4-yl)pyridazin-3(2H)-one] | Active | Active |  | Active | Active

Further lines, results first:

FRET activity (IC50 <30 μM) BRD2(2) [1] | FRET activity (IC50 <30 μM) BRD4(1) [2] | c-myc activity (IC50 <30 μM) (c-myc) | IL-6 activity (IC50 <30 μM) (hIL-6 mRNA) | Cell Proliferation activity (IC50 <30 μM) [3] | SMILES
Active | Active | Active |  |  | CC(=O)Nc1cc(-c2c(C)noc2C)cn(Cc2ccccc2)c1=O [Example 71, N-(1-Benzyl-5-(3,5-dimethylisoxazol-4-yl)-2-oxo-1,2-dihydropyridin-3-yl)acetamide]
Active | Active |  | Active |  | Cc1noc(C)c1-c1ccc(=O)n(Cc2ccncc2)c1 [Example 129, 5-(3,5-Dimethylisoxazol-4-yl)-1-(pyridin-4-ylmethyl)pyridin-2(1H)-one]
Active | Active |  | Active |  | Cc1cccc(Cn2cc(-c3c(C)noc3C)ccc2=O)n1 [Example 46, 5-(3,5-Dimethylisoxazol-4-yl)-1-((6-methylpyridin-2-yl)methyl)pyridin-2(1H)-one]
Active | Active |  | Active |  | Cc1noc(C)c1-c1ccc(=O)n(Cc2ccc(Cl)c(F)c2)c1 [Example 141, 1-(4-Chloro-3-fluorobenzyl)-5-(3,5-dimethylisoxazol-4-yl)pyridin-2(1H)-one]
 | Active |  |  | Active | Cc1cncc(Nc2cc(-c3c(C)noc3C)cn(Cc3ccccc3)c2=O)c1 [Example 246, 1-benzyl-5-(3,5-dimethylisoxazol-4-yl)-3-((5-methylpyridin-3-yl)amino)pyridin-2(1H)-one]
Active | Active |  | Active |  | COc1ccc(Cn2cc(-c3c(C)noc3C)ccc2=O)cc1 [Example 130, 5-(3,5-Dimethylisoxazol-4-yl)-1-(4-methoxybenzyl)pyridin-2(1H)-one]
 | Active |  | Active | Active | Cc1noc(C)c1-c1cc(N)c(=O)n(Cc2ccccc2)n1 [Example 250, 4-amino-2-benzyl-6-(3,5-dimethylisoxazol-4-yl)pyridazin-3(2H)-one]
Active | Active |  | Not Active |  | Cc1noc(C)c1-c1ccc(=O)n(Cc2cccnc2)c1 [Example 44, 5-(3,5-Dimethylisoxazol-4-yl)-1-(pyridin-3-ylmethyl)pyridin-2(1H)-one]
